Experimental findings from ChEMBL document CHEMBL4673296 (J Med Chem, 2020) are described below.

For data set [1], the system named is MDA-MB-468. The experiment in a line: Synergistic cytotoxicity against human MDA-MB-468 cells a t0.021 to 15 uM in presence of PARP inhibitor olaparib measured after 72 hrs by Celltiter-Glo assay. Format: functional, cell-based. Particulars: dose 0.021-15 µM. A general note: ATP-based viability assays read luminescence as a measure of living cells.
Data set [2] has as its system MDA-MB-468. The experiment in a line: Induction of apoptosis in human MDA-MB-468 cells assessed as early apoptotic cells at 10 uM measured after 18 hrs in low-glucose, amino acid-free Earles balanced salt solution (EBSS) media by AnnexinV/7-AAD staining based flow cytometric analysis (reference value: 5.6%). Format: functional. Background: In flow cytometry, cells or beads pass a laser one at a time.

Data set [3] is described as follows: Tmax in C57BL/6J mouse at 30 mg/kg, po measured upto 24 hrs by LC-MS/MS analysis. Format: ADME, organism-based. The following applies: in vivo.
Data set [4] concerns the target T1, Serine/threonine-protein kinase ULK1 (Homo sapiens, UniProt O75385).
T1 sequence (O75385 whole entry): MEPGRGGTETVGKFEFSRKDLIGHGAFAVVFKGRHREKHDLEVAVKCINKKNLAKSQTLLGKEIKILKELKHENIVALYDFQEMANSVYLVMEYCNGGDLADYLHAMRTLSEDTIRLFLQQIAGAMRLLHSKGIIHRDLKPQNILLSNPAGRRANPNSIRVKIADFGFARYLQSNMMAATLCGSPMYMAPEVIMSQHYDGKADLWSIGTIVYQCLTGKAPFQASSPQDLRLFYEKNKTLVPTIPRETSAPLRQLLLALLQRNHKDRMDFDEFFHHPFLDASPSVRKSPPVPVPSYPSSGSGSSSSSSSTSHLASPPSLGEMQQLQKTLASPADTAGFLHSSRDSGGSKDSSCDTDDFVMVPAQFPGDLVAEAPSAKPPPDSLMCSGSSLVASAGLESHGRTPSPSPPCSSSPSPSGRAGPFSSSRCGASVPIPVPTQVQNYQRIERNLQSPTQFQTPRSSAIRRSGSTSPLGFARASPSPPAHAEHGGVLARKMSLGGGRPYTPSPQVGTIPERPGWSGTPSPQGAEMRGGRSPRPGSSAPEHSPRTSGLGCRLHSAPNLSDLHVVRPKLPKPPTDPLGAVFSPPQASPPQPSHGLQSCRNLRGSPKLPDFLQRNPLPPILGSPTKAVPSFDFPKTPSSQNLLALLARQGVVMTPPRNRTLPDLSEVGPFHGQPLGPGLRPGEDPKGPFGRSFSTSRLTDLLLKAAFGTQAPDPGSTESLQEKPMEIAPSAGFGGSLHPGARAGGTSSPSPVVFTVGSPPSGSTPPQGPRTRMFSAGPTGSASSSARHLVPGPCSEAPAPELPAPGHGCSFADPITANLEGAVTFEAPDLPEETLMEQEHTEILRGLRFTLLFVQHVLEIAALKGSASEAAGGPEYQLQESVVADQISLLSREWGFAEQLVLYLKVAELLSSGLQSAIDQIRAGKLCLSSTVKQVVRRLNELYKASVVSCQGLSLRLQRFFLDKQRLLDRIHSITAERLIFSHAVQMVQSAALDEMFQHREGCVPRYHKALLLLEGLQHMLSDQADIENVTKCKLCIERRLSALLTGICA
Nature of the data set: Inhibition of recombinant human ULK1 (1-649) expressed in Sf9 cells using myelin basic protein as substrate by ADP-glo assay. The following applies: sf9.

Data set [5] in a line: AUC (0 to t) in C57BL/6J mouse at 30 mg/kg, po measured upto 24 hrs by LC-MS/MS analysis. Further details: dose 30 mg/kg, time <=24. The following applies: in vivo. Format: ADME, organism-based.
The subject of data set [6] is MDA-MB-468. Nature of the data set: Reduction in autophagosome accumulation in human MDA-MB-468 cells at 10 uM by transmission electron microscopic analysis. The class given is functional, cell-based.
Data set [7] addresses T2, Serine/threonine-protein kinase ULK1 (Homo sapiens) (UniProt O75385).
T2 sequence (whole entry): T1 sequence (O75385 whole entry)
The experiment in a line: Binding affinity to recombinant human ULK1 assessed as change in melting temperature at 10 uM by thermal shift assay.

For data set [8], the system named is Mus musculus. Nature of the data set: Decrease in ULK1 level in liver lysate of C57BL/6J mouse at 10 mg/kg, po measured after 2 hrs by Western blot analysis. The class given is functional, organism-based. Background: A western blot detects proteins with antibodies after separation by electrophoresis.
Data set [9] has as its target T3, Serine/threonine-protein kinase ULK2 (Homo sapiens, UniProt Q8IYT8).
T3 sequence (Q8IYT8 whole entry): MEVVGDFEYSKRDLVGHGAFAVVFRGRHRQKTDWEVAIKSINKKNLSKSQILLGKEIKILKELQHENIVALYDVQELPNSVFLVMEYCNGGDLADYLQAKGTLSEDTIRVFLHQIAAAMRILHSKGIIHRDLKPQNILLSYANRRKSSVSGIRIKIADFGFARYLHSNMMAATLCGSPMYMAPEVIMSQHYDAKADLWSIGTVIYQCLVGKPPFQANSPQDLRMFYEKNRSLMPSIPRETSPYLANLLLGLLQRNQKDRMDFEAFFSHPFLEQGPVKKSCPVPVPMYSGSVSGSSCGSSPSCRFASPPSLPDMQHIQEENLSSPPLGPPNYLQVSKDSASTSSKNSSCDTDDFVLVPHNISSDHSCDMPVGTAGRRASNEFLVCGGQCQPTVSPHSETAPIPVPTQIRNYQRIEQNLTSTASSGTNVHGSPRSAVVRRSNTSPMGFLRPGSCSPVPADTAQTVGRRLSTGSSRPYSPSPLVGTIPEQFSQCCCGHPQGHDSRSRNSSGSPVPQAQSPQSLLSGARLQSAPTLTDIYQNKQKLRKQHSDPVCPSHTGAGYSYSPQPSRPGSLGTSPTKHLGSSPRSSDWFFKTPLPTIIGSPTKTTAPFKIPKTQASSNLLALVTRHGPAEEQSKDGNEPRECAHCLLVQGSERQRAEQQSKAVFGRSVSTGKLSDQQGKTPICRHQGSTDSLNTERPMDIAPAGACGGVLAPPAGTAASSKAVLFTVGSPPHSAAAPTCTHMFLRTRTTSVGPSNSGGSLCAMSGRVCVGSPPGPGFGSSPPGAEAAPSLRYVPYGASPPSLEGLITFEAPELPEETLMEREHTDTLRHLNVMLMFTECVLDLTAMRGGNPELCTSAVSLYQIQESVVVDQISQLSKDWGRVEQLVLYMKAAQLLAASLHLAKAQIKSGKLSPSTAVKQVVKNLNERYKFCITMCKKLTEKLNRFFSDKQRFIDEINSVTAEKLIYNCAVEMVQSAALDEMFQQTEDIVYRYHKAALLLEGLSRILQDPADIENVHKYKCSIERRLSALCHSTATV
The experiment in a line: Inhibition of recombinant human ULK2 (1 to 478 residues) expressed in Sf9 cells using myelin basic protein as substrate by ADP-glo assay.

Data set [10] concerns MDA-MB-468. The experiment in a line: Induction of apoptosis in human MDA-MB-468 cells assessed as viable cells at 10 uM measured after 18 hrs in normal growth media by AnnexinV/7-AAD staining based flow cytometric analysis (reference value: 87.4%). The class given is functional. Particulars: read-out: Activity.
Data set [11] in a line: Apparent permeability of the compound across basolateral side to apical side in human Caco2 cells. The following applies: Caco-2. The class given is ADME, cell-based.
In data set [12] the test system is MDA-MB-468. The experiment in a line: Inhibition of olaparib-induced autophagic flux in human MDA-MB-468 cells expressing tandem-labelled mCherryEGFP-LC3 chimeric protein at 10 uM measured after 48 hrs by flow cytometry. The class given is functional, cell-based.
Data set [13] deals with MDA-MB-468. The experiment in a line: cells. Particulars: Homo sapiens, MDA-MB-468, 72 h.
Description: Cytotoxicity against human MDA-MB-468 cells measured after 72 hrs by Celltiter-Glo assay

What is called Tmax is the time from dosing to the highest level. A word on the IC50: it is the concentration that gives 50% inhibition. A word on the AUC(0-t): it is exposure summed from dosing to a finite time, without extrapolation to infinity. As a reminder, the ΔTm is the shift of the melting midpoint relative to a reference. For orientation: Papp B→A means the apparent permeability from the basolateral to the apical side of a cell layer.

Structures are written as SMILES. Calls of active or inactive are those of the source. The calls are words filed in the database; no cut-off is given here. Where only a bound is given, the exact number is not on record here.

For `COc1ccc(Nc2ncc(C(F)(F)F)c(NC3CC3)n2)cc1OC`, the outcome in data set [1] was Active. Further, the Activity in data set [2] was found to be 42.9%. Also, the Tmax in data set [3] came to 1 h. The 50% inhibitory concentration (IC50) in [4] was found to be 0.013 µM; in data set [9] it was 0.476 µM; in data set [13], 0.3 µM. Further, the AUC(0-t) at 24 h in data set [5] was found to be 2300 nM·h. The inhibition entry in [6], in data set [8] and in [12] was “Active” in each case. Moreover, the thermal shift (ΔTm) in [7] came out at 8.3 °C. In data set [10], the viability at 10 µM came to 64.1%. Moreover, in data set [11], the Papp B→A is above 100 nm/s.
